The text below walks through data of US20100247485A1, “FORMULATIONS AND DEVICES FOR […] TO […] MICR[…] ARTHOPODS” (MEVLABS, INC., priority 2007, published 2010).

The subject of this series is Anopheles mosquitoe species. As to the kind of experiment: Lethality of drug to Anopheles mosquitoes. The conditions noted are these: 7 μg/ml (estimated ED 50 of Pyremethamine).

For `CCc1nc(N)nc(N)c1-c1ccc(Cl)cc1` [Pyremethamine], the “lethality to mosquitoes at the estimated ED50” value was “not lethal”.
